{"source": "paper PMC7144563", "about": "(Molecules, 2020)", "protocol": "Cellulose membrane was properly treated and mounted in the Franz diffusion cells (diffusion area 4.9 cm^2, compartment volume 20 mL). The acceptor compartment was filled with PBS pH 7.4 and the donor compartment was filled with 1 mL of the formulation described above (100 μg/mL of the compounds). Permeation studies were conducted under constant stirring (90 rpm) at 37 °C. Samples of 0.5 mL were withdrawn from the acceptor compartment at predetermined time intervals (30 min, 1 h, 2 h, 4 h, 6 h, 8 h) and replaced with fresh and preheated PBS. Experiments were repeated in triplicates for each compound and blank experiments containing only the medium were also performed. The samples were analyzed by HPLC without any previous pretreatment.\nSteady state flux (Jss) was calculated from the slope of the linear section of the plot of the amount of permeated compound per unit area (μg/cm^2) against to time. The apparent permeability coefficient (Papp) was calculated using Equation (3), where Cd is the initial concentration of the drug in the donor compartment and Jss is the steady state flux. (3) Papp=Jss/Cd"}
{"smiles": "C[C@]12C=CC(=O)C=C1CC[C@@H]1[C@@H]2C(=O)C[C@@]2(C)[C@H]1CC[C@]2(O)C(=O)CO", "note": "[COMP 27, Prednisone]", "values": [{"measurement": "apparent permeability coefficient (Papp)", "setting": "pH 7.4", "result": "highest"}]}
{"smiles": "C[C@]12CCC(=O)C[C@@H]1CC[C@@H]1[C@@H]2CC[C@]2(C)[C@@H](O)CC[C@@H]12", "note": "[COMP 3, Androstanolone]", "values": [{"measurement": "Papp values compared to the rest of the tested steroids", "setting": "during the first 4 h (2 h and 4 h) of the in vitro permeability study, considered outlier", "result": "significantly higher"}]}
